Measured values from patent US20050288351A1, “Azaspiro compounds for the treatment of pain” (Schwarz Pharma AG, priority 2002, published 2005).
Each block holds one molecule with its values, some of them ahead of it.

Tests used:
NMRl mice = experiment: formalin test, in-vivo test for determining the analgesic efficacy; design: key to Mean deviation of the pain reaction compared to control (%) (n minutes after administration of formalin) 20-25′ / Mean deviation of the pain reaction compared to control (%) (n minutes after administration of formalin) 30-35′: (+): Intensified pain reaction; conditions: for Mean deviation of the pain reaction compared to control (%) (n minutes after administration of formalin) 20-25′: 20-25′ after formalin; for Mean deviation of the pain reaction compared to control (%) (n minutes after administration of formalin) 30-35′: 30-35′ after formalin; for Mean deviation of the pain reaction compared to control (%) (n minutes after administration of formalin) 40-45′: 40-45′ after formalin; for average reduction of the pain reaction: after 30-45 minutes in the formalin test
Description: (§1) In each case, the maximum dosage selected for the concentration of azaspiro compounds was held, by a factor of about 2, below the toxic dose previously determined in the IRWIN test (Irwin, Psychopharmacologia 13 (1968) 222).
A reduction in the pain reaction is expressed in negative percentage figures.
The test was conducted as described by Wheeler-Aceto (Psychopharmacology 104, 1991, 35).
NMRl mice having a weight of 20-25 g were kept under controlled conditions (22±2° C., 40-70% relative humidity). 25 μl of a 5% […] solution was injected in the hind leg and the leg-licking frequency was then clocked for 5 minutes each at defined intervals (20, 30, 40 minutes).
(§2) First, the highest possible non-toxic concentration of the respective test substances that could be used was determined by an IRWIN test (Irwin, Psychopharmacologia 13, 1968, 222).
The test substances were dissolved in a physiological salt solution with 0.5% sodium carboxymethyl cellulose and were each measured in 1-3 dosages that had been applied intraperitoneally 10 minutes before administration of formalin. The comparative reference value was provided by a control excipient (10 ml/kg).
The test was performed in blind fashion on 10 mice per test series. The evaluation was based on a comparison of the treated animals with control excipients at three different times. […] Accordingly, an average 50% reduction of the pain reaction for the treated animals is obtained when in a defined period (e.g. 30-35′ after the formalin injection) the leg-licking duration (averaged over the 10 test animals) is reduced by 50% compared to the untreated animals. The statistical significance was determined using the Mann-Whitney U-test.

[1] = side effects above the maximum tolerable dosages (IRWIN test); type: in vivo
Description: as §1, with “FIG. 1 and Table 1 show the reaction of test animals (10 mice each) 20-45 minutes after the intraperitoneal administration of selected compounds. In” for “In”
as §2

[2] = 4 mg/kg i.p., Test series 2, n = 10 mice
[3] = 16 mg/kg i.p., Test series 1, n = 10 mice
[4] = 16 mg/kg i.p., Test series 2, n = 10 mice
[5] = 32 mg/kg i.p., Test series 1, n = 10 mice
[6] = 64 mg/kg i.p., Test series 1, n = 10 mice
[7] = 64 mg/kg i.p., Test series 2, n = 10 mice
[8] = 8 mg/kg i.p., Test series 1, n = 10 mice
[9] = 8 mg/kg i.p., Test series 2, n = 10 mice
[10] = 32 mg/kg i.p., Test series 2, n = 10 mice

SMILES: ON=C1CC2(CCCCC2)CN1 [SPM 6850, N-(2-azaspiro[4.5]decane-3)-oxim]
Mean deviation of the pain reaction compared to control (%) (n minutes after administration of formalin) 20-25′ (NMRl mice; 32 mg/kg i.p., n = 10 mice): (+)
Mean deviation of the pain reaction compared to control (%) (n minutes after administration of formalin) 30-35′ (NMRl mice; 32 mg/kg i.p., n = 10 mice): −50%
Mean deviation of the pain reaction compared to control (%) (n minutes after administration of formalin) 40-45′ (NMRl mice; 32 mg/kg i.p., n = 10 mice): −38%
average reduction of the pain reaction (NMRl mice; 32 mg/kg per Table 1): 44%

SMILES: ON=C1CC2(CCCCCC2)CN1 [SPM 6873, N-(2-azaspiro[4.6]undecane-3)-oxim]
Mean deviation of the pain reaction compared to control (%) (n minutes after administration of formalin) 20-25′ (NMRl mice; 16 mg/kg i.p., n = 10 mice): (+)
Mean deviation of the pain reaction compared to control (%) (n minutes after administration of formalin) 30-35′ (NMRl mice; 16 mg/kg i.p., n = 10 mice): −35%
Mean deviation of the pain reaction compared to control (%) (n minutes after administration of formalin) 40-45′ (NMRl mice; 16 mg/kg i.p., n = 10 mice): −38%
average reduction of the pain reaction (NMRl mice; 16 mg/kg per Table 1): 36.5%

SMILES: C1CCC2(CC1)CCNC2 [SPM 0019, 2-azaspiro[4.5]decane]
Mean deviation of the pain reaction compared to control (%) (n minutes after administration of formalin) 20-25′ (NMRl mice; 32 mg/kg i.p., n = 10 mice): −67%
Mean deviation of the pain reaction compared to control (%) (n minutes after administration of formalin) 30-35′ (NMRl mice; 32 mg/kg i.p., n = 10 mice): −21%
Mean deviation of the pain reaction compared to control (%) (n minutes after administration of formalin) 40-45′ (NMRl mice; 32 mg/kg i.p., n = 10 mice): −26%

SMILES: S=C1CC2(CCCCC2)CN1 [SPM 0013, 2-azaspiro[4.5]decane-3-thion]
Mean deviation of the pain reaction compared to control (%) (n minutes after administration of formalin) 20-25′ (NMRl mice; 32 mg/kg i.p., n = 10 mice): −99%
Mean deviation of the pain reaction compared to control (%) (n minutes after administration of formalin) 30-35′ (NMRl mice; 32 mg/kg i.p., n = 10 mice): −32%
Mean deviation of the pain reaction compared to control (%) (n minutes after administration of formalin) 40-45′ (NMRl mice; 32 mg/kg i.p., n = 10 mice): −4%

melting point: 132.3 °C
SMILES: S=C1CC2(CCCCCC2)CN1 [SPM 6868, 2-azaspiro[4.6]undecane-3-thion]
Mean deviation of the pain reaction compared to control (%) (n minutes after administration of formalin) 20-25′ (NMRl mice; [2]): −53%
Mean deviation of the pain reaction compared to control (%) (n minutes after administration of formalin) 30-35′ (NMRl mice; [2]): −7%
Mean deviation of the pain reaction compared to control (%) (n minutes after administration of formalin) 40-45′ (NMRl mice; [2]): −16%
Mean deviation of the pain reaction compared to control (%) (n minutes after administration of formalin) 20-25′ (NMRl mice; [3]): −62%
Mean deviation of the pain reaction compared to control (%) (n minutes after administration of formalin) 30-35′ (NMRl mice; [3]): −29%
Mean deviation of the pain reaction compared to control (%) (n minutes after administration of formalin) 40-45′ (NMRl mice; [3]): −49%
Mean deviation of the pain reaction compared to control (%) (n minutes after administration of formalin) 20-25′ (NMRl mice; [4]): −42%
Mean deviation of the pain reaction compared to control (%) (n minutes after administration of formalin) 30-35′ (NMRl mice; [4]): −30%
Mean deviation of the pain reaction compared to control (%) (n minutes after administration of formalin) 40-45′ (NMRl mice; [4]): −31%
Mean deviation of the pain reaction compared to control (%) (n minutes after administration of formalin) 20-25′ (NMRl mice; [5]): −83%
Mean deviation of the pain reaction compared to control (%) (n minutes after administration of formalin) 30-35′ (NMRl mice; [5]): −0%
Mean deviation of the pain reaction compared to control (%) (n minutes after administration of formalin) 40-45′ (NMRl mice; [5]): −24%
Mean deviation of the pain reaction compared to control (%) (n minutes after administration of formalin) 20-25′ (NMRl mice; [6]): −89%
Mean deviation of the pain reaction compared to control (%) (n minutes after administration of formalin) 30-35′ (NMRl mice; [6]): −67%
Mean deviation of the pain reaction compared to control (%) (n minutes after administration of formalin) 40-45′ (NMRl mice; [6]): −83%
Mean deviation of the pain reaction compared to control (%) (n minutes after administration of formalin) 20-25′ (NMRl mice; [7]): −100%
Mean deviation of the pain reaction compared to control (%) (n minutes after administration of formalin) 30-35′ (NMRl mice; [7]): −98%
Mean deviation of the pain reaction compared to control (%) (n minutes after administration of formalin) 40-45′ (NMRl mice; [7]): −93%

SMILES: O=C1CC2(CCCCC2)CN1 [GBP-L, 2-azaspiro[4.5]decan-3-on, reference compound]
Mean deviation of the pain reaction compared to control (%) (n minutes after administration of formalin) 20-25′ (NMRl mice; [8]): −58%
Mean deviation of the pain reaction compared to control (%) (n minutes after administration of formalin) 30-35′ (NMRl mice; [8]): −18%
Mean deviation of the pain reaction compared to control (%) (n minutes after administration of formalin) 40-45′ (NMRl mice; [8]): −15%
Mean deviation of the pain reaction compared to control (%) (n minutes after administration of formalin) 20-25′ (NMRl mice; [9]): (+)
Mean deviation of the pain reaction compared to control (%) (n minutes after administration of formalin) 30-35′ (NMRl mice; [9]): (+)
Mean deviation of the pain reaction compared to control (%) (n minutes after administration of formalin) 20-25′ (NMRl mice; [3]): −74%
Mean deviation of the pain reaction compared to control (%) (n minutes after administration of formalin) 30-35′ (NMRl mice; [3]): −40%
Mean deviation of the pain reaction compared to control (%) (n minutes after administration of formalin) 40-45′ (NMRl mice; [3]): −41%
Mean deviation of the pain reaction compared to control (%) (n minutes after administration of formalin) 20-25′ (NMRl mice; [4]): (+)
Mean deviation of the pain reaction compared to control (%) (n minutes after administration of formalin) 30-35′ (NMRl mice; [4]): (+)
Mean deviation of the pain reaction compared to control (%) (n minutes after administration of formalin) 20-25′ (NMRl mice; [5]): −64%
Mean deviation of the pain reaction compared to control (%) (n minutes after administration of formalin) 30-35′ (NMRl mice; [5]): −15%
Mean deviation of the pain reaction compared to control (%) (n minutes after administration of formalin) 40-45′ (NMRl mice; [5]): −46%
Mean deviation of the pain reaction compared to control (%) (n minutes after administration of formalin) 20-25′ (NMRl mice; [10]): (+)
Mean deviation of the pain reaction compared to control (%) (n minutes after administration of formalin) 30-35′ (NMRl mice; [10]): −10%
lethality [1]: significant lethality rate
